Measured values published in ChEMBL document CHEMBL1130523, “Design and synthesis of the cartilage protective agent (CPA, Ro32-3555)” (Bioorg Med Chem Lett, 1997).
In brackets after ≈: the same amount, converted by molar mass.

Tests used:
Bos taurus = species: Bos taurus; test: Effective activity in protecting bovine nasal cartilage explants against degradation induced by interleukin 1-alpha in efficacy experiments in vitro; assay type: functional
Stromelysin-1 = Stromelysin-1 (Homo sapiens, UniProt P08254); test: Inhibition of human stromelysin-1, MMP-3
Sequence of Stromelysin-1 (P08254 whole entry): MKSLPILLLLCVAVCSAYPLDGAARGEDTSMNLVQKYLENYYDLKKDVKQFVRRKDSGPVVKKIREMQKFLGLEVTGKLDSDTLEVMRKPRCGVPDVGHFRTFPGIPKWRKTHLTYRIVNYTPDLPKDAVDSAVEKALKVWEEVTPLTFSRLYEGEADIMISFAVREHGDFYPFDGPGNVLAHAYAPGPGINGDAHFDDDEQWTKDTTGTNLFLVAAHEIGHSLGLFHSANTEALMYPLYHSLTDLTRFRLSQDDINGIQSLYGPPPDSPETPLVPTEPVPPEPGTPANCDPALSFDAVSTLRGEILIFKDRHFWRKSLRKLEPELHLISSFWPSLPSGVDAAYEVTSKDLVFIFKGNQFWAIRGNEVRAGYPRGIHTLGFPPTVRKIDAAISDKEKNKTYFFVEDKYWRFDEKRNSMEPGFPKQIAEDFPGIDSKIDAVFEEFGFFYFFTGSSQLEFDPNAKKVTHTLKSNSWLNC

[1] = target: Matrix metalloproteinase-9 (Homo sapiens, UniProt P14780); test: Inhibition of human gelatinase B, MMP9
Sequence of Matrix metalloproteinase-9 (P14780 whole entry): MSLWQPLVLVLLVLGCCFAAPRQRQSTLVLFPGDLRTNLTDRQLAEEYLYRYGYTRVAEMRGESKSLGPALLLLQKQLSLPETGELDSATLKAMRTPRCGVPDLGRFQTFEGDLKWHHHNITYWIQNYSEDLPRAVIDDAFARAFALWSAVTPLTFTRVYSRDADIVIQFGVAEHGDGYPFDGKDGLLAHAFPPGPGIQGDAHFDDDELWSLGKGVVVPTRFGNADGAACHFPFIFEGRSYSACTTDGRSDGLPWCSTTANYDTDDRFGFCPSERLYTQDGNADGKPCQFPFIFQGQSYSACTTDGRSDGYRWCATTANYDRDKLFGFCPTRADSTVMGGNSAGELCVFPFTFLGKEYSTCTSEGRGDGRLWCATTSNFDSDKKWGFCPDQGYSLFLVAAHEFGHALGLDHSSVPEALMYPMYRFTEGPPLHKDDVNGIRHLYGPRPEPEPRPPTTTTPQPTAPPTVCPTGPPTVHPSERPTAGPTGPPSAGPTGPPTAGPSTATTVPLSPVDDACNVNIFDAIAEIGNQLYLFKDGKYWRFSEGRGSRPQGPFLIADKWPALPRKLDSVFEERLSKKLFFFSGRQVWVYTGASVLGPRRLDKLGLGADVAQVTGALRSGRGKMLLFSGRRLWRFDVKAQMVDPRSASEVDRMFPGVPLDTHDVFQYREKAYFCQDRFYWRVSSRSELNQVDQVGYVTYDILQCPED

[2] = Oral bioavailability in rat; assay type: ADME, organism-based; details: in vivo
[3] = Partition coefficient (logD); assay type: physicochemical; details: octanol/water
Collagenase = test: Inhibition of human collagenase (MMP1); assay type: protein assay
[4] = Solubility was determined; assay type: physicochemical

Structure (SMILES)	IC50 (Bos taurus)	IC50 (Stromelysin-1)	IC50 [1]	bioavailability [2]	logD [3]	IC50 (Collagenase)	solubility [4]
CC(C)C[C@@H](C(=O)N1CCCCC1)[C@@H](CN1C(=O)N(C)C(C)(C)C1=O)C(=O)NO	< 100 nM	2180 nM	237 nM	30%	0.6	10.1 nM	> 100 mg/mL
CN1C(=O)N(C[C@@H](C(=O)NO)[C@@H](CC2CCCC2)C(=O)N2CCCCC2)C(=O)C1(C)C	< 100 nM		59 nM	25%	0.6		73 mg/mL (≈ 167 mM)
CNC(=O)[C@H](NC(=O)[C@H](CC(C)C)[C@@H](CN1C(=O)c2ccccc2C1=O)C(=O)NO)C(C)(C)C		9.1 nM	4.3 nM	1%			
CNC(=O)[C@H](NC(=O)[C@H](CC(C)C)[C@@H](C)C(=O)NO)C(C)(C)C		47 nM	2.4 nM	2.7%		2.6 nM	
CNC(=O)[C@H](NC(=O)[C@@H](CC(=O)NO)CC(C)C)C(C)(C)C		160 nM	10.4 nM	3%		4.9 nM	0.8 mg/mL (≈ 2.54 mM)
CNC(=O)[C@H](NC(=O)C(CC(C)C)C(CN1C(=O)N(C)C(C)(C)C1=O)C(=O)NO)C(C)(C)C (single isomer, unassigned)			2.8 nM	1.5%		1 nM	
